Some results are limits rather than exact numbers.

What is called inhibition in vivo is the change of the read-out against control, counted positive when it falls. In general, bioavailability refers to the share of a dose that reaches the circulation, judged against a reference dose that is usually intravenous. For orientation: IC50 means the concentration at which inhibition is half-maximal.

In series [1] the test system is Mus musculus. Kind of series: Inhibition of corn oil-induced plasma triacylglycerol excursion in C57BL/6J mouse at 30 mg/kg administered via oral gavage 30 mins prior to corn oil challenge measured after 6 hrs by oral lipid tolerance test relative to control. In kind it is functional.
A short description of series [2]: Ratio of plasma concentration in corn oil-treated C57BL/6J mouse at 30 mg/kg, ip to IC50 for mouse MGAT2. Particulars: in vivo. In kind it is ADME, organism-based.
The subject of series [3] is Mus musculus. Put plainly: Anorectic effect in fasting high fat diet fed C57BL/6J mouse assessed as reduction in food intake at 30 mg/kg, po for 37 days followed by high fat diet feeding for 2 hrs relative to control. The format is functional. Also noted: scale not given: the % may be the effect or the level left.
Series [4] deals with Mus musculus. Kind of series: Inhibition of corn oil-induced plasma chylomicron triacylglycerol excursion in C57BL/6J mouse at 30 mg/kg, ip treated 16 hrs prior to liquid meal challenge measured up to 4 hrs by oral meal tolerance test relative to control. In kind it is functional.
Series [5] in a line: Oral bioavailability in mouse. As to conditions: in vivo. The format is ADME, organism-based.
Series [6] is described as follows: Oral bioavailability in rat. Particulars: in vivo. The format is ADME, organism-based.
Series [7] addresses T1, Diacylglycerol O-acyltransferase 2 (Homo sapiens, UniProt Q96PD7).
T1 sequence (Q96PD7 whole entry): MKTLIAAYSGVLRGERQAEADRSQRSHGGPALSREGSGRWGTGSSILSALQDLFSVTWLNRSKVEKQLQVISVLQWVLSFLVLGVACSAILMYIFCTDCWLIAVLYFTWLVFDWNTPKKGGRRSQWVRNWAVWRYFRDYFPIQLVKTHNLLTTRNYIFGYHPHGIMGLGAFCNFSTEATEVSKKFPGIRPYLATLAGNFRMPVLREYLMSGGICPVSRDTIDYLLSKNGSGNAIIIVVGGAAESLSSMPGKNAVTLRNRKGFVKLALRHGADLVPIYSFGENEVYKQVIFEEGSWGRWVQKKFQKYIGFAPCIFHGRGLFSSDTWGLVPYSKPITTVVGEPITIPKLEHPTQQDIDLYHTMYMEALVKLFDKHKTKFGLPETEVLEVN
Put plainly: Inhibition of recombinant human DGAT2.

For the next series, the species on record is Homo sapiens. Put plainly: Selectivity ratio of IC50 for human MGAT3 to IC50 for human MGAT2.
Series [8] concerns Mus musculus. Kind of series: Decrease in insulin level in high sucrose, very low fat diet fed mouse model of fatty liver at 30 mg/kg relative to control. Also noted: scale not given: the % may be the effect or the level left. The format is functional.
The subject of series [9] is Mus musculus. Put plainly: Decrease in insulin level in high sucrose, very low fat diet fed mouse model of fatty liver at 100 mg/kg relative to control. In kind it is functional. Also noted: scale not given: the % may be the effect or the level left.
Series [10] concerns Mus musculus. Kind of series: Inhibition of plasma triacylglycerol excursion in mouse at 10 mg/kg relative to control. In kind it is functional.
In series [11] the test system is Mus musculus. Put plainly: Inhibition of plasma triacylglycerol excursion in mouse at 30 mg/kg relative to control. In kind it is functional.

For the molecule `O=C(CNCCCCCOc1ccc(C(F)(F)F)cc1)N1CCc2nc(SC3CCC3)n(-c3ccccc3)c(=O)c2C1`, the inhibition in vivo at 30 mg/kg with Mus musculus [1] is 42%.
With `Cn1nc(C(F)(F)F)cc1-c1cnc(N2CCc3cc(S(=O)(=O)Nc4c(F)cc(Cl)cc4F)cc(N4CCCC4=O)c32)nc1` [TP-020], in [2], the Ratio came out at 1000. For the same molecule, the Activity in the series with Mus musculus [3] is reported as 59%. Moreover, the inhibition in vivo at 30 mg/kg with Mus musculus [4] was 58%.
In the case of `CCC1(C)NC(=O)c2cc(S(=O)(=O)Nc3ccc(F)cc3F)cc(Cl)c2NC1=O` (stereo not drawn), the bioavailability in series [5] worked out at 69%; in series [6] it was 74%.
Take `CC(C)(C)c1cc(C(C)(C)C)nc(N2CCn3c(nnc3-c3ccc(OC(F)(F)F)cc3)C2)n1`: in [7], the IC50 is > 30 µM. For the same molecule, in the series filed under Homo sapiens, the Ratio IC50 worked out at 300. Moreover, the Activity stood at 57% in the series with Mus musculus [8] and 51% in the series with Mus musculus [9].
Turning to `CC(C)(C)C1CCN(Cc2ccc([C@H](NS(C)(=O)=O)C(F)(F)F)cc2)CC1`, in the series with Mus musculus [10], the inhibition in vivo at 10 mg/kg was determined as 69%. Also, testing at 30 mg/kg in the series on Mus musculus [11] gave an inhibition in vivo of 100%.
As to `O=C(CCNCC1COc2ccccc2O1)N1CCc2nc(SC3CCC3)n(-c3ccccc3)c(=O)c2C1` (stereo not drawn), at 30 mg/kg the inhibition in vivo in the series with Mus musculus [1] was 42%.

Source of the values: ChEMBL document CHEMBL4371008, “Monoacylglycerol Acyltransferase 2 (MGAT2) Inhibitors for the Treatment of Metabolic Diseases and Nonalcoholic Steatohepatitis (NASH)” (J Med Chem, 2018).
